Earlier results on 4 compounds are cited in US20220142893A1, “THE PROCESS OF DYEING KERATINOUS MATERIAL COMPRISING THE USE OF AN ORGANOSILICON COMPOUND, TWO COLOR-IMPARTING COMPOUNDS AND A FILM-FORMING POLYMER” (Henkel AG & Co. KGaA, priority 2019, published 2022).

For the data set the following is noted: 25° C.

Consider `O=S(=O)([O-])c1ccc(N=Nc2c(O)ccc3ccccc23)cc1.[Na+]` [Acid Orange 7, sodium salt of 4-[(2-hydroxy-1-naphthyl)azo]benzene sulphonate], for which the solubility in water result is reported as “more than 7 g/L”.

Regarding `Nc1cc(S(=O)(=O)[O-])cc2cc(S(=O)(=O)[O-])c(N=Nc3ccccc3)c(O)c12.[Na+].[Na+]` [Acid Red 33, disodium salt of 5-amino-4-hydroxy-3-(phenylazo)-naphthalene-2,7-disulphonate], the solubility in water is 2500 µg/mL.

On to `O=C([O-])c1c(Cl)c(Cl)c(Cl)c(Cl)c1-c1c2c(Br)cc(=O)c(Br)c-2oc2c(Br)c(O)cc(Br)c12.O=C([O-])c1c(Cl)c(Cl)c(Cl)c(Cl)c1-c1c2c(Br)cc(=O)c(Br)c-2oc2c(Br)c(O)cc(Br)c12.[Na+].[Na+]` [Acid Red 92, disodium salt of 3,4,5,6-tetrachloro-2-(1,4,5,8-tetrabromo-6-hydroxy-3-oxoxanthen-9-yl)benzoic acid], for which the solubility in water result was “greater than 10 g/L”.

For `O=C([O-])C1=NN(c2ccc(S(=O)(=O)[O-])cc2)C(=O)C1N=Nc1ccc(S(=O)(=O)[O-])cc1.[Na+].[Na+].[Na+]` (stereo not shown) [Acid Yellow 23, trisodium salt of 4,5-dihydro-5-oxo-1-(4-sulfophenyl)-4-((4-sulfophenyl)azo)-1H-pyrazole-3-carboxylic acid], the “solubility in water (in words)” value is “highly soluble”.
